In patent US12642777B2 (SHENZHEN CHINA RESOURCES JIUCHUANG MEDICAL AND …, priority 2020, dated 2026):

Tests used:
[1] = Pharmacokinetics and tolerated dose of intravenous mitoxantrone chemotherapy reported in a document; format: in vivo, human; conditions: 75 mg/m^2 intravenous bolus versus 3143 ng×min/ml
Method: Moreover, the drug is metabolized rapidly after entering the blood, and the drug in the plasma is almost completely metabolized 60 min, 120 min at most, after the administration.

[2] = intravenous bolus, 75 mg/m^2, ovarian cancer; cited from earlier work

O=C1c2c(O)ccc(O)c2C(=O)c2c(NCCNCCO)ccc(NCCNCCO)c21 [mitoxantrone]
AUC of the document as multiple of the maximum AUC in the present trial [1]: 10.7-32.5 times
AUC [2]: 560 to 1700 ng·h/mL
